# Experimental data as given in article PMC7406649, “The rare sugar D-tagatose protects plants from downy mildews and is a safe fungicidal agrochemical” (Communications Biology, 2020).
# What was measured:
# Format in all cases: biochemical
# fructokinase (LC500344) = molecular target: T1, fructokinase (LC500344) (Hyaloperonospora arabidopsidis, UniProt A0A7G1GEU5); test: Dixon plot; coupled pyruvate kinase/lactate dehydrogenase NADH assay at […] nm; settings: competitive with D-fructose (0.5-2.5 mM); 10-250 mM D-tagatose; 4 mM ATP, 8 mM MgCl2, pH 7.5, 25 °C; D-tagatose is also a substrate
# T1 construct: coding region in pGEX5X-1, N-terminal GST tag kept (58 kDa with tag), expressed in E. coli SoluBL21, GSTrap purified; equivalent to Hpa812304 of isolate Emoy2
# T1 sequence (A0A7G1GEU5 1-297): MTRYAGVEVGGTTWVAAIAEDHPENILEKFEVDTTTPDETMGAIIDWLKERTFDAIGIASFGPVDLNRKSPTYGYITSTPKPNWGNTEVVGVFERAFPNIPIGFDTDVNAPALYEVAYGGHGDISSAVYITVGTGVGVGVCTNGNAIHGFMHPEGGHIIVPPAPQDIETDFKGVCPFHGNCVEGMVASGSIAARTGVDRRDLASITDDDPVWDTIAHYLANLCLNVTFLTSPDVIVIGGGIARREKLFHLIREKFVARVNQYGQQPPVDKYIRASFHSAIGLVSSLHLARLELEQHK
# [1] = molecular target: T2, phosphomannose isomerase (LC500563) (Hyaloperonospora arabidopsidis, UniProt A0A7G1GEM8); test: HPLC of ABEE-labelled products; settings: 2.5 mM substrate, 10 mM MgCl2, pH 7.4, 30 °C, 6 h; products D-glucose 6-phosphate and D-mannose 6-phosphate
# T2 construct: coding region in pColdI, His tag kept (45 kDa), expressed in E. coli SHuffle Express, HisTrap purified; equivalent to Hpa802576 of isolate Emoy2
# T2 sequence (A0A7G1GEM8 1-415): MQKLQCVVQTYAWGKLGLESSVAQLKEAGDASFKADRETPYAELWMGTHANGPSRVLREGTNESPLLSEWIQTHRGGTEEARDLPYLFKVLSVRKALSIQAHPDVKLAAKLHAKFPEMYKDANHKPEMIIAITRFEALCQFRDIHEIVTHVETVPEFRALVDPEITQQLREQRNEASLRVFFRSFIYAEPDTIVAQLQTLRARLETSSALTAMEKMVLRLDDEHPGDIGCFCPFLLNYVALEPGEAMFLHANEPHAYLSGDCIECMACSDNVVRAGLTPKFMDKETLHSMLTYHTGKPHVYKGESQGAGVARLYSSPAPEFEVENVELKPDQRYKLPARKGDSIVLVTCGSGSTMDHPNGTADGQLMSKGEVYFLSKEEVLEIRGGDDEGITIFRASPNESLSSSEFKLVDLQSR
# [2] = molecular target: T2, phosphomannose isomerase (LC500563); test: HPLC of ABEE-labelled products; D-glucose 6-phosphate formation; settings: read-out: % inhibition at 37.5 mM
# [3] = molecular target: T2, phosphomannose isomerase (LC500563); test: HPLC of ABEE-labelled products; D-mannose 6-phosphate formation; settings: read-out: % inhibition at 37.5 mM
smiles,measurement,setting,value
OCC1(O)OC[C@@H](O)[C@H](O)[C@@H]1O (stereo partly drawn) [D-tagatose],Ki,fructokinase (LC500344),70 ± 5.14 mM
O=P(O)(O)OC[C@H]1OC(O)(CO)[C@@H](O)[C@@H]1O (stereo partly drawn) [D-fructose 6-phosphate],HPLC of ABEE-labelled products,[1],both D-glucose 6-phosphate and D-mannose 6-phosphate were detected after the addition of D-fructose 6-phosphate
O=P(O)(O)OC[C@H]1OC(O)(CO)[C@@H](O)[C@H]1O (stereo partly drawn) [D-tagatose 6-phosphate],inhibition at 37500 µM,[2],38.2%
same,inhibition at 37500 µM,[3],60.8%
